≈ marks a conversion by molar mass, not a printed value.
What was measured:
[1] = biological target: KRAS G12C (GMPPNP-loaded) and cRAF (Ras-binding domain) interaction (Homo sapiens (Human), UniProt P01116, C118S/C51S/C80L/G12C); assay: Inhibition of KRAS G12C and cRAF binding (AlphaScreen); settings: KRAS G12C loaded with GMPPNP, cRaf RBD, 2 hours preincubation; read-out: Raf-1 RBD K-Ras IC50
Method in brief: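 GMPPNP-loaded KRAS G12C in 25 mM Hepes pH 7.4, 150 mM NaCl, 5 mM MgCl2, 0.01% Triton X-100, 10 μM GMPPNP, 2% DMSO, preincubated with compound 2 h at room temperature. cRAF RBD plus AlphaScreen beads then added for 60-90 min; signal read at 570 nm.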

[2] = Determination of logD (1-octanol / phosphate buffer pH 7.4); type: physicochemical; settings: for logD: 1-octanol/phosphate buffer, pH 7.4, pH 7.4, 1-octanol/phosphate buffer, read-out: Log D, pH 7.4
Method in brief: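 Shake-flask partition between 1-octanol and 100 mM phosphate buffer pH 7.4, each phase presaturated with the other overnight. Tubes shaken 1 h at 800 rpm, room temperature, then centrifuged. Both phases quantified by LCMS and logD calculated from the ratio.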

[3] = Determination of kinetic solubility (pH 7.4); type: physicochemical; settings: for solubility kinetic at 2 h: phosphate buffer, pH 7.4, aqueous buffer, kinetic from dmso stock, 50 mM phosphate buffer pH 7.4, read-out: Ksol, pH 7.4
Method in brief: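 Sample mixed with 50 mM phosphate buffer, pH 7.4, vortexed, then shaken 2 h at room temperature and centrifuged. Filtrate analysed by HPLC-UV and LC-MS/MS, with solubility read from peak areas against a standard calibration curve.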

KRAS G12C (GMPPNP-loaded) and cRAF (Ras-binding domain) interaction, sequence (P01116 other isoform, or with tags, fused parts or gaps G12C/C51S/C80L/C118S): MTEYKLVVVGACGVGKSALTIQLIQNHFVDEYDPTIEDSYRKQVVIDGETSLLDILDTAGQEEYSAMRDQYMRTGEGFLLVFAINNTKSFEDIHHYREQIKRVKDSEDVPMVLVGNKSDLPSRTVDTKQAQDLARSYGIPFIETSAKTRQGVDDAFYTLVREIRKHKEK

Row | IC50 [1] [nM] | logD [2] | solubility kinetic at 2 h [3] [µg/mL] | Log D, pH 7.4 ([2]; pH 7.4, 1-octanol/phosphate buffer) | Ksol, pH 7.4 (ug/mL) ([3]; 50 mM phosphate buffer pH 7.4) | Structure (SMILES)
1 | 10 to 100 | 3.75 | 80.5 (≈ 102 µM) | – | – | C[C@H]1CN(C/C=C/C(=O)N2CCN(c3nc(OC[C@@]45CCCN4C[C@H](F)C5)nc4c(F)c(-c5cccc(Cl)c5C(F)(F)F)ncc34)C[C@@H]2CC#N)C[C@H](C)O1 [Compound 308]
2 | < 10 | 3 | 108 (≈ 145 µM) | – | – | N#CC[C@H]1CN(c2nc(OC[C@@]34CCCN3C[C@H](F)C4)nc3c(F)c(-c4cccc(Cl)c4C4CC4)ncc23)CCN1C(=O)/C=C/CN1C[C@H]2C[C@@H]1CO2 [Compound 276]
3 | 10 to 100 | 4.05 | 124 (≈ 164 µM) | – | – | C[C@@H]1CN(C/C=C/C(=O)N2CCN(c3nc(OC[C@@]45CCCN4C[C@H](F)C5)nc4c(F)c(-c5cccc(Cl)c5C5CC5)ncc34)C[C@@H]2CC#N)C[C@H](C)O1 [Compound 300]
4 | < 10 | 2.99 | 118 (≈ 153 µM) | – | – | N#CC[C@H]1CN(c2nc(OC[C@@]34CCCN3C[C@H](F)C4)nc3c(F)c(-c4cccc5cccc(Cl)c45)ncc23)CCN1C(=O)/C=C/CN1CC[C@@H]2COC[C@H]21 [Compound 298]
5 | 100 to 500 | – | – | 3.22 | 43.66 | Cc1noc(/C=C/C(=O)N2CCN(c3nc(OCC45CCCN4CCC5)nc4c3CCN(c3cccc5cccc(Cl)c35)C4)C[C@@H]2CC#N)n1 [Compound 28]
6 | < 10 | 2.35 | 121 (≈ 168 µM) | – | – | CN(C)C/C=C/C(=O)N1CCN(c2nc(OC[C@@]34CCCN3C[C@H](F)C4)nc3c(F)c(-c4cccc(Cl)c4C(F)(F)F)ncc23)C[C@@H]1CC#N [Compound 114, 2-((S)-4-(7-(3-chloro-2-(trifluoromethyl)phenyl)-8-fluoro-2-(((2R,7aS)-2-fluorotetrahydro-1H-pyrrolizin-7a(5H)-yl)methoxy)pyrido[4,3-d]pyrimidin-4-yl)-1-((E)-4-(dimethylamino)but-2-enoyl)piperazin-2-yl)acetonitrile]
7 | > 500 | 1.22 | 88.7 (≈ 131 µM) | – | – | N#CC[C@H]1CN(c2nc(OCC34CCCN3CCC4)nc3c2CCN(c2ccccc2C(F)F)C3)CCN1C(=O)/C=C/CN1CCOCC1 [Compound 61]
8 | 10 to 100 | 3.04 | 73.1 (≈ 99 µM) | – | – | CC(C)(O)c1noc(/C=C/C(=O)N2CCN(c3nc(OCC45CCCN4CCC5)nc4c3CCN(c3cccc5cccc(Cl)c35)C4)C[C@@H]2CC#N)n1 [Example 16, (S,E)-2-(4-(7-(8-chloronaphthalen-1-yl)-2-((hexahydro-1H-pyrrolizin-7a-yl)methoxy)-5,6,7,8-tetrahydropyrido[3,4-d]pyrimidin-4-yl)-1-(3-(3-(2-hydroxypropan-2-yl)-1,2,4-oxadiazol-5-yl)acryloyl)piperazin-2-yl)acetonitrile]
9 | < 10 | 3.99 | 2.36 (≈ 3.16 µM) | – | – | Cc1cc(/C=C/C(=O)N2CCN(c3nc(OC[C@@]45CCCN4C[C@H](F)C5)nc4c(F)c(-c5cccc6ccc(F)c(C)c56)ncc34)C[C@@H]2CC#N)nc(C)n1 [Compound 105, 2-((S)-1-((E)-3-(2,6-dimethylpyrimidin-4-yl)acryloyl)-4-(8-fluoro-7-(7-fluoro-8-methylnaphthalen-1-yl)-2-(((2R,7aS)-2-fluorotetrahydro-1H-pyrrolizin-7a(5H)-yl)methoxy)pyrido[4,3-d]pyrimidin-4-yl)piperazin-2-yl)acetonitrile]
10 | 10 to 100 | 3.42 | 94.6 (≈ 123 µM) | – | – | Cc1cc(N)nc(-c2ncc3c(N4CCN(C(=O)/C=C/c5nc(C(C)C)no5)[C@@H](CC#N)C4)nc(OC[C@@]45CCCN4C[C@H](F)C5)nc3c2F)c1C(F)(F)F [Compound 135]
11 | 10 to 100 | 1.97 | 133 (≈ 183 µM) | – | – | CN1CCN(C/C=C/C(=O)N2CCN(c3nc(OCC45CCCN4CCC5)nc4c3CCN(c3cccc5cccc(Cl)c35)C4)C[C@@H]2CC#N)CC1 [Compound 162]
12 | 10 to 100 | 3.5 | 128 (≈ 163 µM) | – | – | C[C@@H]1CN(C/C=C/C(=O)N2CCN(c3nc(OC[C@@]45CCCN4C[C@H](F)C5)nc4c(F)c(-c5cccc(Cl)c5C(F)(F)F)ncc34)C[C@@H]2CC#N)C[C@H](C)O1 [Compound 306]
13 | < 10 | 1.52 | 162 (≈ 214 µM) | – | – | N#CC[C@H]1CN(c2nc(OC[C@@]34CCCN3C[C@H](O)C4)nc3c(F)c(-c4cccc5ccc(F)c(Cl)c45)ncc23)CCN1C(=O)/C=C/CN1CCOCC1 [Compound 321]
14 | 10 to 100 | 2.44 | 149 (≈ 202 µM) | – | – | N#CC[C@H]1CN(c2nc(OCC34CCCN3CCC4)nc3c2CCN(c2cccc4cccc(Cl)c24)C3)CCN1C(=O)/C=C/CN1C[C@H]2COC[C@H]2C1 [Compound 195]
15 | > 500 | 2.92 | 77.7 (≈ 112 µM) | – | – | Cn1cnc(/C=C/C(=O)N2CCN(c3nc(OCC45CCCN4CCC5)nc4c3CCN(c3cccc5cccc(Cl)c35)C4)C[C@@H]2CC#N)c1 [Compound 22]
16 | < 10 | 2.9 | 78.6 (≈ 104 µM) | – | – | N#CC[C@H]1CN(c2nc(OC[C@@]34CCCN3C[C@H](F)C4)nc3c(F)c(-c4cccc5ccc(F)c(F)c45)ncc23)CCN1C(=O)/C=C/CN1CCCOCC1 [Compound 110, 2-((S)-1-((E)-4-(1,4-oxazepan-4-yl)but-2-enoyl)-4-(7-(7,8-difluoronaphthalen-1-yl)-8-fluoro-2-(((2R,7aS)-2-fluorotetrahydro-1H-pyrrolizin-7a(5H)-yl)methoxy)pyrido[4,3-d]pyrimidin-4-yl)piperazin-2-yl)acetonitrile]
17 | < 10 | 3.33 | 86.8 (≈ 112 µM) | – | – | N#CC[C@H]1CN(c2nc(OC[C@@]34CCCN3C[C@H](F)C4)nc3c(F)c(-c4cccc5ccc(F)c(Cl)c45)ncc23)CCN1C(=O)/C=C/CN1CCOC2CC21 (stereo partly drawn) [Compound 160]
18 | 100 to 500 | 2.77 | 111 (≈ 161 µM) | – | – | N#CC[C@H]1CN(c2nc(OCC34CCCN3CCC4)nc3c2CCN(c2cccc4cccc(Cl)c24)C3)CCN1C(=O)/C=C/c1ncccn1 [Compound 35]
19 | < 10 | 2.14 | 78.1 (≈ 106 µM) | – | – | Cc1nccc(/C=C/C(=O)N2CCN(c3nc(OC[C@@]45CCCN4C[C@H](F)C5)nc4c(F)c(-c5nc(N)cc6cccc(F)c56)ncc34)C[C@@H]2CC#N)n1 [Compound 146]
20 | < 10 | 2.69 | 0.01 (≈ 0.0133 µM) | – | – | N#CC[C@H]1CN(c2nc(OC[C@@]34CCCN3C[C@H](F)C4)nc3c2CCN(c2cccc4cccc(Cl)c24)C3)CCN1C(=O)/C=C/c1nc(C2COC2)no1 [Example 7, 2-((S)-4-(7-(8-chloronaphthalen-1-yl)-2-(((2R,7aS)-2-fluorohexahydro-1H-pyrrolizin-7a-yl)methoxy)-5,6,7,8-tetrahydropyrido[3,4-d]pyrimidin-4-yl)-1-((E)-3-(3-(oxetan-3-yl)-1,2,4-oxadiazol-5-yl)acryloyl)piperazin-2-yl)acetonitrile]
21 | 100 to 500 | 2.4 | 29.9 (≈ 37.8 µM) | – | – | N#CC[C@H]1CN(c2nc(OC[C@@]34CCCN3C[C@H](F)C4)nc3c(F)c(-c4cccc5cccc(Cl)c45)ncc23)CCN1C(=O)/C=C/CN1CCS(=O)(=O)CC1 [Compound 207]
22 | < 10 | 2.81 | 169 (≈ 219 µM) | – | – | N#CC[C@H]1CN(c2nc(OC[C@@]34CCCN3C[C@H](F)C4)nc3c(F)c(-c4cccc5cccc(Cl)c45)ncc23)CCN1C(=O)/C=C/CN1C[C@H]2CC[C@@H]1CO2 [Compound 258]

Row | Structure (SMILES) | IC50 [1] [nM] | logD [2] | solubility kinetic at 2 h [3] [µg/mL] | Log D, pH 7.4 ([2]; pH 7.4, 1-octanol/phosphate buffer) | Ksol, pH 7.4 (ug/mL) ([3]; 50 mM phosphate buffer pH 7.4)
23 | N#CC[C@H]1CN(c2nc(OC[C@@]34CCCN3C[C@H](F)C4)nc3c(F)c(-c4cccc(Cl)c4C(F)(F)F)ncc23)CCN1C(=O)/C=C/CN1CC2CC(C1)O2 [Compound 295] | < 10 | 2.75 | 102 (≈ 132 µM) | – | –
24 | CCc1c(F)ccc2cccc(-c3ncc4c(N5CCN(C(=O)/C=C/CN6CC7CC(C6)O7)[C@@H](CC#N)C5)nc(OC[C@@]56CCCN5C[C@H](F)C6)nc4c3F)c12 [Compound 242] | < 10 | 3.38 | 93.3 (≈ 122 µM) | – | –
25 | CCc1c(F)ccc2cccc(-c3ncc4c(N5CCN(C(=O)/C=C/CN6[C@@H]7CC[C@H]6COC7)[C@@H](CC#N)C5)nc(OC[C@@]56CCCN5C[C@H](F)C6)nc4c3F)c12 [Compound 99, 2-((S)-1-((E)-4-((1R,5S)-3-oxa-8-azabicyclo[3.2.1]octan-8-yl)but-2-enoyl)-4-(7-(8-ethyl-7-fluoronaphthalen-1-yl)-8-fluoro-2-(((2R,7aS)-2-fluorotetrahydro-1H-pyrrolizin-7a(5H)-yl)methoxy)pyrido[4,3-d]pyrimidin-4-yl)piperazin-2-yl)acetonitrile] | < 10 | 3.4 | 78 (≈ 99.8 µM) | – | –

From patent publication US20250129103A1, “METHODS FOR TREATMENT OF CANCER” (Frontier Medicines Corporation, priority 2022, published 2025)
